How the values were obtained:
VEGFR-2 tyrosine kinase = molecular target: T1, VEGFR-2 tyrosine kinase (Homo sapiens, UniProt P35968); test: In vitro VEGFR-2 tyrosine kinase assay (BPS Bioscience); format: biochemical; settings: read-out: VEGFR-2 % inhibition; 10 μM concentration
T1 construct: purchased BPS Bioscience 40301
Summary of the method: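 For IC50, ADP formation after a 30-min 30 °C reaction was detected by ADP-Glo luminescence in duplicate, blank-subtracted and fitted as log inhibitor versus normalised response. The 10 µM single-dose test instead measured remaining ATP (Kinase-Glo Plus) after 40 min at 30 °C with poly(Glu,Tyr) substrate, 10 μM ATP, pH 7.4, 1% DMSO.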

SW-620 = test: NCI 60 cell panel SRB screen; format: cell-based; settings: Homo sapiens; SW-620, single dose 10 μM; read-out: percent cell growth promotion
NCI/ADR-RES = test: NCI 60 cell panel SRB screen; format: cell-based; settings: Homo sapiens, single dose 10 μM, read-out: percent cell growth promotion
SN12C = test: NCI 60 cell panel SRB screen; format: cell-based; settings: Homo sapiens, single dose 10 μM, read-out: percent cell growth promotion
MOLT-4 = test: NCI 60 cell panel SRB screen; format: cell-based; settings: Homo sapiens; MOLT-4, single dose 10 μM; read-out: percent cell growth promotion
SF-268 = test: NCI 60 cell panel SRB screen; format: cell-based; settings: Homo sapiens; SF-268, single dose 10 μM; read-out: percent cell growth promotion
MDA-MB 231/ATCC = test: NCI 60 cell panel SRB screen; format: cell-based; settings: Homo sapiens, MDA-MB-231, read-out: percent cell growth promotion
A549/ATCC = test: NCI 60 cell panel SRB screen; format: cell-based; settings: Homo sapiens, single dose 10 μM, read-out: percent cell growth promotion
HOP-92 = test: NCI 60 cell panel SRB screen; format: cell-based; settings: Homo sapiens; HOP-92, single dose 10 μM; read-out: percent cell growth promotion
HT29 = test: NCI 60 cell panel SRB screen; format: cell-based; settings: Homo sapiens, HT-29; HT29, single dose 10 μM; read-out: percent cell growth promotion
OVCAR-4 = test: NCI 60 cell panel SRB screen; format: cell-based; settings: Homo sapiens; OVCAR-4, single dose 10 μM; read-out: percent cell growth promotion
CAKI-1 = test: NCI 60 cell panel SRB screen; format: cell-based, human; settings: Homo sapiens; CAKI-1, single dose 10 μM; read-out: percent cell growth promotion
A498 = test: NCI 60 cell panel SRB screen; format: cell-based; settings: Homo sapiens; A498, single dose 10 μM; read-out: percent cell growth promotion
NCI-H322M = test: NCI 60 cell panel SRB screen; format: cell-based; settings: Homo sapiens, single dose 10 μM, read-out: percent cell growth promotion
UACC-257 = test: NCI 60 cell panel SRB screen; format: cell-based; settings: Homo sapiens, UACC-257, read-out: percent cell growth promotion
HOP-62 = test: NCI 60 cell panel SRB screen; format: cell-based; settings: Homo sapiens; HOP-62, single dose 10 μM; read-out: percent cell growth promotion
UO-31 = test: NCI 60 cell panel SRB screen; format: cell-based; settings: Homo sapiens; UO-31, single dose 10 μM; read-out: percent cell growth promotion
OVCAR-8 = test: NCI 60 cell panel SRB screen; format: cell-based; settings: Homo sapiens; OVCAR-8, single dose 10 μM; read-out: percent cell growth promotion
SK-MEL-28 = test: NCI 60 cell panel SRB screen; format: cell-based; settings: Homo sapiens, SK-MEL-28, read-out: percent cell growth promotion
HS 578T = test: NCI 60 cell panel SRB screen; format: cell-based; settings: Homo sapiens, Hs-578T, read-out: percent cell growth promotion

T1 sequence (P35968 20-1356): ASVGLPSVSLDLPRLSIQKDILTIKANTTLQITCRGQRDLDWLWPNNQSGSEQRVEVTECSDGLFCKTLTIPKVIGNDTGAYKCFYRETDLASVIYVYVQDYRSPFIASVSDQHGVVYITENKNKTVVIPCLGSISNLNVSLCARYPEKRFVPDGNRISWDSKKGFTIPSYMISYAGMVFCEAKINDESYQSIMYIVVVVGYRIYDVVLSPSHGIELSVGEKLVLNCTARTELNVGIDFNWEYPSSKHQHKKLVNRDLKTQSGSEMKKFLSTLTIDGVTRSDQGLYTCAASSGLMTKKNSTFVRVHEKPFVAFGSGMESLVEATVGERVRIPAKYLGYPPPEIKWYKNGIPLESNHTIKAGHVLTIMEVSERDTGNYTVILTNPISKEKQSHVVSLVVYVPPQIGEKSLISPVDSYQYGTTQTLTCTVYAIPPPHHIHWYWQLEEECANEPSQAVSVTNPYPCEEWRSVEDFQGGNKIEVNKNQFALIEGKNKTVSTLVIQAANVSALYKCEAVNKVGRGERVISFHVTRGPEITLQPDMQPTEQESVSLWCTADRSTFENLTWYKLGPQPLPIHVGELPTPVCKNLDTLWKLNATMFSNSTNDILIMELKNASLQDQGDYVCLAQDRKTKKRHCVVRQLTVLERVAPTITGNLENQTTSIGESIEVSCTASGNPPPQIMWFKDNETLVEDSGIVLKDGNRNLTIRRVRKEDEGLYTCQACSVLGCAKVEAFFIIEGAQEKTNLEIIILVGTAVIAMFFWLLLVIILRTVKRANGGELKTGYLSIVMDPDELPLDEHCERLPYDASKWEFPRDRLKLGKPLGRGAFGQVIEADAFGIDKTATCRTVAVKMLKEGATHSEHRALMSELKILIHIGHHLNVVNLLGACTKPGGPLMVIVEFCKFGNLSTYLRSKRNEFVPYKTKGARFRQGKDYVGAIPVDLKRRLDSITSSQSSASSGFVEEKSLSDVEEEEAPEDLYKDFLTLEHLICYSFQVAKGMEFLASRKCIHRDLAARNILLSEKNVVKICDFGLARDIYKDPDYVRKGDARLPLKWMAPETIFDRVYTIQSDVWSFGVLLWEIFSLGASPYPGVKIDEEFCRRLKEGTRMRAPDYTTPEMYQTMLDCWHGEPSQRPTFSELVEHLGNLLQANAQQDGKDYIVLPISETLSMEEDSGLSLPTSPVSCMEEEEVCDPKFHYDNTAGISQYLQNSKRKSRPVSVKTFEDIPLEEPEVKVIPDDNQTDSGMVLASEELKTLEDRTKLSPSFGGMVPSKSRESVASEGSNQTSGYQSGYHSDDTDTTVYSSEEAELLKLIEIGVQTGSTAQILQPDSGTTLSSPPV

## Cc1nnc(N2CCN(c3ccccc3F)CC2)c2ccccc12 [Compound 8h, 1–(4-(2-Fluorophenyl)piperazin-1-yl)-4-methylphthalazine]
VEGFR-2 tyrosine kinase
  inhibition at 10 µM: 9%
SW-620
  activity at 10 µM: 106%
NCI/ADR-RES
  activity at 10 µM: 96.9%
SN12C
  activity at 10 µM: 100%
MOLT-4
  activity at 10 µM: 102%
SF-268
  activity at 10 µM: 110%
MDA-MB 231/ATCC
  activity at 10 µM: 121%
A549/ATCC
  activity at 10 µM: 89%
HOP-92
  activity at 10 µM: 112%
HT29
  activity at 10 µM: 90%
OVCAR-4
  activity at 10 µM: 91.8%
CAKI-1
  activity at 10 µM: 86.8%
A498
  activity at 10 µM: 65.3%
NCI-H322M
  activity at 10 µM: 121%
UACC-257
  activity at 10 µM: 95.3%
HOP-62
  activity at 10 µM: 100%
UO-31
  activity at 10 µM: 95.9%
OVCAR-8
  activity at 10 µM: 95.3%
SK-MEL-28
  activity at 10 µM: 104%
HS 578T
  activity at 10 µM: 110%
